# Assay results as given in paper PMC10138577, “Prenylated Flavonoids with Selective Toxicity against Human Cancers” (International Journal of Molecular Sciences, 2023).
# Key:
# Format in all cases: cell-based
# [1] = tested on: MCF-7 human breast adenocarcinoma cells; assay: In vitro antiproliferative assay (SRB), MCF-7; settings: MCF-7, 72 h exposure, SRB, mean ± SD
# Description: (§1) The following established in vitro cell lines were applied: human breast adenocarcinoma (MCF-7 and SK-BR-3), human breast ductal carcinoma (T47D), human prostate adenocarcinoma (PC-3), human prostate carcinoma (Du145), human colorectal adenocarcinoma (HT-29 and LoVo), doxorubicin-resistant human colorectal adenocarcinoma (LoVo/Dx), human myelomonocytic leukemia (MV-4-11), human lung adenocarcinoma (A549), normal murine embryonic fibroblasts (BALB/3T3) and human lung microvascular endothelial (HLMEC). All the cell lines were obtained from the American Type Culture Collection (Rockville, MD, USA) except for LoVo and LoVo/DX, which were received from the Technical University of Gdańsk, Poland, courtesy of Prof. E. Borowski. All the cell lines were maintained in the Institute of Immunology and Experimental Therapy, Wroclaw, Poland. The cells were cultured in the following media: DMEM medium (BALB/3T3), Eagle medium (MCF-7, SK-BR-3, Du145), RPMI medium (HLMEC, MV-4-11) or RPMI 1640 + Opti-MEM (1:1) medium (A549, T47D, LoVo, LoVo/Dx, PC-3, HT-29). The DMEM medium was supplemented with 2 mM L-glutamine and 10% fetal bovine serum. The Eagle medium was supplemented with 4 mM L-glutamine, 10% fetal bovine serum, 1 mM sodium pyruvate for Du145 cells or 2 mM L-glutamine, 1% amino acids and 0.8 mg L^−1 of insulin for MCF-7 and SK-BR-3. The RPMI medium was supplemented with 2 mM L-glutamine, 1 mM sodium pyruvate and 10% fetal bovine serum. The RPMI 1640 + Opti-MEM (1:1) medium was supplemented with 2 mM L-glutamine, 5% fetal bovine serum (PC-3, A549) and 0.8 mg L^−1 insulin (T47D) or 1 mM sodium pyruvate (HT-29, LoVo, LoVoDx) and 0.1 ug/mL doxorubicin (LoVo/Dx). The media contained antibiotics: 100 µg mL^−1 streptomycin and 100 U mL^−1 penicillin. All the cell lines were incubated at 37 °C in a humid atmosphere saturated with 5% CO2.
# (§2) The details of this technique were described by Skehan et al.. After 72 h of incubation with the tested compounds, the cells were fixed in situ by gently adding cold 50% trichloroacetic acid—TCA (50 µL per well). The plates were incubated at 4 °C for 1 h and then washed five times with tap water and air-dried. Next, the cellular material fixed with TCA was stained by adding 50 µL of 0.4% sulforhodamine B dissolved in 1% acetic acid to each well and incubating the wells for 30 min at room temperature. The unbound dye was removed by washing the plates five times with 1% acetic acid, whereas the stain bound to the cells was extracted with 150 µL of 10 mM unbuffered Tris base for determination of the optical density at a 540 nm wavelength in a computer-interfaced, 96-well microtiter plate reader–Multiskan FC photometer (Thermo Scientific, Waltham, MA, USA). The background optical density was measured in the wells filled with culture medium, without the cells.
# (§3) Twenty-four hours before incubation with the tested compounds, the cells were seeded in 96-well plates (Sarstedt, Nümbrecht, Germany) at a density of 10^4 cells per well (10^3 cells per well for HLMEC) in 100 µL of culture medium. The analysis of the antiproliferative activity of the compounds was performed using sulforhothamine B (SRB) (for all the adherent cells) or 3-(4,5-dimethylthiazol-2-yl)-2,5-diphenyl tetrazolium bromide (MTT) (for the leukemia cells—MV-4-11). The details of this technique have been previously described by Skehan et al. and Antoszak et al.. An assay was performed after 72 h of exposure at varying concentrations (from 0.1 to 100 µg mL^−1) of xanthohumol (1), aurone (2) and the reference drug cisplatin. Each compound at each concentration was tested in a single experiment, which was repeated at least 3 times. […] The results were calculated as the IC50 (μM) (half maximal inhibitory concentration), i.e., the concentration of the tested agent that inhibits the proliferation of the cancer cell population by half. […]
# [2] = tested on: SK-BR-3 human breast adenocarcinoma cells; assay: In vitro antiproliferative assay (SRB), SK-BR-3; settings: SK-BR-3, 72 h exposure, SRB, mean ± SD
# Description: as §1, §2, §3
# [3] = tested on: T47D human breast ductal carcinoma cells; assay: In vitro antiproliferative assay (SRB), T47D; settings: T47D, 72 h exposure, SRB, mean ± SD
# Description: as §1, §2, §3
# [4] = tested on: HT-29 human colorectal adenocarcinoma cells; assay: In vitro antiproliferative assay (SRB), HT-29; settings: HT-29, 72 h exposure, SRB, mean ± SD
# Description: as §1, §2, §3
# [5] = tested on: LoVo human colorectal adenocarcinoma cells; assay: In vitro antiproliferative assay (SRB), LoVo; settings: LoVo, 72 h exposure, SRB, mean ± SD
# Description: as §1, §2, §3
# [6] = tested on: LoVo/Dx doxorubicin-resistant human colorectal adenocarcinoma cells; assay: In vitro antiproliferative assay (SRB), LoVo/Dx; settings: LoVo/Dx, 72 h exposure, SRB, mean ± SD
# Description: as §1, §2, §3
# [7] = tested on: PC-3 human prostate adenocarcinoma cells; assay: In vitro antiproliferative assay (SRB), PC-3; settings: PC-3, 72 h exposure, SRB, mean ± SD
# Description: as §1, §2, §3
# [8] = tested on: Du145 human prostate carcinoma cells; assay: In vitro antiproliferative assay (SRB), Du145; settings: Du145, 72 h exposure, SRB, mean ± SD
# Description: as §1, §2, §3
# [9] = tested on: A549 human lung adenocarcinoma cells; assay: In vitro antiproliferative assay (SRB), A549; settings: A549, 72 h exposure, SRB, mean ± SD
# Description: as §1, §2, §3
# [10] = tested on: MV-4-11 human myelomonocytic leukemia cells; assay: In vitro antiproliferative assay (MTT), MV-4-11; settings: MV-4-11, 72 h exposure, MTT, mean ± SD
# Description: as §1
# The details of this technique were described by Antoszczak et al.. The proliferation inhibition of human myelomonocytic leukemia (MV-4-11) by the tested compounds was measured using the MTT assay. Thus, 20 µL of 3-(4,5-dimethylthiazol-2-yl)-2,5-diphenyl tetrazolium bromide solution was added to each well. Then, the plates were incubated for 4 h in a cell incubator to allow the cells to metabolize the yellow MTT to blue formazan. Next, 80 µL of lysing mixture (consisting of 67.5 g sodium dodecyl sulfate, 225 mL dimethylformamide and 275 mL distilled water) was added to each well. The plates were incubated for 24 h for the formazan crystals to be released from the cells and dissolved, and then the absorbance of each well was read on a 96-well microtiter plate reader (Multiskan FC photometer (Thermo Scientific)) at a 570 nm wavelength.
# Twenty-four hours before incubation with the tested compounds, the cells were seeded in 96-well plates (Sarstedt, Nümbrecht, Germany) at a density of 10^4 cells per well (10^3 cells per well for HLMEC) in 100 µL of culture medium. The analysis of the antiproliferative activity of the compounds was performed using sulforhothamine B (SRB) (for all the adherent cells) or 3-(4,5-dimethylthiazol-2-yl)-2,5-diphenyl tetrazolium bromide (MTT) (for the leukemia cells—MV-4-11). The details of this technique have been previously described by Skehan et al. and Antoszak et al.. An assay was performed after 72 h of exposure at varying concentrations (from 0.1 to 100 µg mL^−1) of xanthohumol (1), aurone (2) and the reference drug cisplatin. Each compound at each concentration was tested in a single experiment, which was repeated at least 3 times. […] The results were calculated as the IC50 (μM) (half maximal inhibitory concentration), i.e., the concentration of the tested agent that inhibits the proliferation of the cancer cell population by half. The IC50 values and the mean values ± SD calculated for each experiment separately using GraphPad Prism software (GraphPad Software 9.1.0, San Diego, CA, USA) are presented in Table S1 in the Supplementary Materials.
# [11] = tested on: human lung microvascular endothelial (HLMEC) cells; assay: In vitro cytotoxicity against normal cells (SRB), HLMEC; settings: HLMEC normal cell line, 72 h exposure, SRB, mean ± SD; read-out: Antiproliferative activity IC50
# Description: as §1
# (§4) The details of this technique were described by Skehan et al.. […] The unbound dye was removed by washing the plates five times with 1% acetic acid, whereas the stain bound to the cells was extracted with 150 µL of 10 mM unbuffered Tris base for determination of the optical density at a 540 nm wavelength in a computer-interfaced, 96-well microtiter plate reader–Multiskan FC photometer (Thermo Scientific, Waltham, MA, USA). The background optical density was measured in the wells filled with culture medium, without the cells.
# (§5) Twenty-four hours before incubation with the tested compounds, the cells were seeded in 96-well plates (Sarstedt, Nümbrecht, Germany) at a density of 10^4 cells per well (10^3 cells per well for HLMEC) in 100 µL of culture medium. […] The results were calculated as the IC50 (μM) (half maximal inhibitory concentration), i.e., the concentration of the tested agent that inhibits the proliferation of the cancer cell population by half. […]
# [12] = tested on: normal murine embryonic fibroblasts (BALB/3T3); assay: In vitro cytotoxicity against normal cells (SRB), BALB/3T3; settings: BALB3T3 normal cell line, 72 h exposure, SRB, mean ± SD; read-out: Antiproliferative activity IC50
# Description: as §1, §4, §5
smiles,measurement,setting,value
"N.N.[Cl][Pt][Cl] [Cisplatin, cisplatin, reference compound]",IC50,[1],11.3 ± 0.99 µM
same,IC50,[2],21.6 ± 3.93 µM
same,IC50,[3],13.1 ± 5.58 µM
same,IC50,[4],18.9 ± 2.25 µM
same,IC50,[5],4.32 ± 0.9 µM
same,IC50,[6],8.97 ± 1.45 µM
same,IC50,[7],15.3 ± 2.28 µM
same,IC50,[8],9.36 ± 0.63 µM
same,IC50,[9],11.3 ± 1.36 µM
same,IC50,[10],1.11 ± 0.36 µM
same,IC50,[11],1.26 ± 0.1 µM
same,IC50,[12],8.96 ± 2.15 µM
